Target: T1, HIV-1 PR (HIV-1 protease) (HIV-1 M:B_HXB2R, UniProt P04585)
T1 construct: gene gag-pol; mature protease cut from Gag-Pol polyprotein (Pr160Gag-Pol); SensoLyte 520 HIV-1 assay kit; homodimer
Type: biochemical
Details: n = 3; read-out: HIV-1 PR / IC50 ± SD (mg/mL) (converted)

| Compound | IC50 [µM] |
| --- | --- |
| O=c1cc(-c2ccc(O)c(O)c2)oc2cc(O)cc(O)c12 [Luteolin] | 136 |
| O=C(O)[C@H]1O[C@@H](Oc2cc3oc(-c4ccccc4)cc(=O)c3c(O)c2O)[C@H](O)[C@@H](O)[C@@H]1O [Baicalin] | 1860 |
| COc1c(O)cc(O)c2c(=O)cc(-c3ccccc3)oc12 [Wogonin] | 1410 |
| O=c1cc(-c2ccc(O)cc2)oc2cc(O)cc(O)c12 [Apigenin] | 481 |
| O=c1cc(-c2ccc(O)cc2)oc2cc(O)c(O)c(O)c12 [Scutellarein] | 238 |
| O=C1C[C@@H](c2ccc(O)cc2)Oc2cc(O)cc(O)c21 [Narigenin] | 661 |
